Where a name gives a salt, the structure may show the parent alone.
Key:
[1] = Benazepril HCl API solution stability at different pH and temperature (HPLC % assay); format: physicochemical
[2] = Pantoprazole Sodium solution stability at different pH and temperature (HPLC % assay); format: physicochemical

With CCOC(=O)[C@H](CCc1ccccc1)N[C@H]1CCc2ccccc2N(CC(=O)O)C1=O [Benazepril HCl] as the molecule, how does the “% Assay of Benazepril HCl” value ([1]; pH 1.2, 22° C., Initial) read?
Its value is 101%.

And the “% Assay of Benazepril HCl” value ([1]; pH 1.2, 40° C., 2 Hour)?
Its value is 100%.

What about the “% Assay of Benazepril HCl” value ([1]; pH 1.2, 40° C., 4 Hour) of the same molecule?
The value was 100%.

And the “% Assay of Benazepril HCl” value ([1]; pH 1.2, 40° C., 24 Hour)?
Its value is 99%.

What about the “% Assay of Benazepril HCl” value ([1]; pH 3, 22° C., Initial) of the same molecule?
Its value is 100%.

And the “% Assay of Benazepril HCl” value ([1]; pH 3, 40° C., 2 Hour)?
The value was 99%.

And the “% Assay of Benazepril HCl” value ([1]; pH 3, 40° C., 4 Hour)?
Its value is 99%.

What about the “% Assay of Benazepril HCl” value ([1]; pH 3, 40° C., 24 Hour) of the same molecule?
The value was 98%.

What about the “% Assay of Benazepril HCl” value ([1]; pH 4, 22° C., Initial) of the same molecule?
The value was 100%.

What about the “% Assay of Benazepril HCl” value ([1]; pH 4, 40° C., 2 Hour) of the same molecule?
The value was 99%.

And the “% Assay of Benazepril HCl” value ([1]; pH 4, 40° C., 4 Hour)?
Its value is 99%.

And the “% Assay of Benazepril HCl” value ([1]; pH 4, 40° C., 24 Hour)?
The value was 98%.

And the “% Assay of Benazepril HCl” value ([1]; pH 7, 22° C., Initial)?
Its value is 100%.

And the “% Assay of Benazepril HCl” value ([1]; pH 7, 40° C., 2 Hour)?
The value was 100%.

And the “% Assay of Benazepril HCl” value ([1]; pH 7, 40° C., 4 Hour)?
The value was 100%.

And the “% Assay of Benazepril HCl” value ([1]; pH 7, 40° C., 24 Hour)?
The value was 97%.

What about the “% Assay of Benazepril HCl” value ([1]; pH 9, 22° C., Initial) of the same molecule?
The value was 101%.

What about the “% Assay of Benazepril HCl” value ([1]; pH 9, 40° C., 2 Hour) of the same molecule?
The value was 99%.

And the “% Assay of Benazepril HCl” value ([1]; pH 9, 40° C., 4 Hour)?
Its value is 99%.

And the “% Assay of Benazepril HCl” value ([1]; pH 9, 40° C., 24 Hour)?
The value was 91%.

Which “% Assay of Pantoprazole Sodium” value ([2]; pH 1.2, 22° C., 15 min) does the source give for COc1ccnc(C[S+]([O-])c2nc3ccc(OC(F)F)cc3[nH]2)c1OC (centres unmarked) [Pantoprazole Sodium] here?
Its value is 27%.

What about the “% Assay of Pantoprazole Sodium” value ([2]; pH 1.2, 22° C., 30 min) of the same molecule?
Its value is 13%.

What about the “% Assay of Pantoprazole Sodium” value ([2]; pH 1.2, 22° C., 60 min) of the same molecule?
Its value is 7%.

What about the “% Assay of Pantoprazole Sodium” value ([2]; pH 1.2, 22° C., 120 min) of the same molecule?
Its value is 5%.

What about the “% Assay of Pantoprazole Sodium” value ([2]; pH 1.2, 22° C., Initial) of the same molecule?
Its value is 88%.

What about the “% Assay of Pantoprazole Sodium” value ([2]; pH 1.2, 40° C., 15 min) of the same molecule?
The value was 17%.

What about the “% Assay of Pantoprazole Sodium” value ([2]; pH 1.2, 40° C., 30 min) of the same molecule?
The value was 6%.

What about the “% Assay of Pantoprazole Sodium” value ([2]; pH 1.2, 40° C., 60 min) of the same molecule?
Its value is 4%.

What about the “% Assay of Pantoprazole Sodium” value ([2]; pH 1.2, 40° C., 120 min) of the same molecule?
The value was 3%.

And the “% Assay of Pantoprazole Sodium” value ([2]; pH 3.0, 22° C., 15 min)?
The value was 32%.

And the “% Assay of Pantoprazole Sodium” value ([2]; pH 3.0, 22° C., 30 min)?
The value was 20%.

And the “% Assay of Pantoprazole Sodium” value ([2]; pH 3.0, 22° C., 60 min)?
Its value is 5%.

What about the “% Assay of Pantoprazole Sodium” value ([2]; pH 3.0, 22° C., 120 min) of the same molecule?
Its value is 1%.

And the “% Assay of Pantoprazole Sodium” value ([2]; pH 3.0, 22° C., Initial)?
The value was 81%.

And the “% Assay of Pantoprazole Sodium” value ([2]; pH 3.0, 40° C., 15 min)?
Its value is 3%.

And the “% Assay of Pantoprazole Sodium” value ([2]; pH 3.0, 40° C., 30 min)?
Its value is 2%.

And the “% Assay of Pantoprazole Sodium” value ([2]; pH 3.0, 40° C., 60 min)?
The value was 2%.

What about the “% Assay of Pantoprazole Sodium” value ([2]; pH 3.0, 40° C., 120 min) of the same molecule?
The value was 1%.

And the “% Assay of Pantoprazole Sodium” value ([2]; pH 4.5, 22° C., 15 min)?
The value was 97%.

What about the “% Assay of Pantoprazole Sodium” value ([2]; pH 4.5, 22° C., 30 min) of the same molecule?
The value was 96%.

What about the “% Assay of Pantoprazole Sodium” value ([2]; pH 4.5, 22° C., 60 min) of the same molecule?
Its value is 94%.

What about the “% Assay of Pantoprazole Sodium” value ([2]; pH 4.5, 22° C., 120 min) of the same molecule?
Its value is 89%.

And the “% Assay of Pantoprazole Sodium” value ([2]; pH 4.5, 22° C., Initial)?
The value was 98%.

And the “% Assay of Pantoprazole Sodium” value ([2]; pH 4.5, 40° C., 15 min)?
The value was 92%.

And the “% Assay of Pantoprazole Sodium” value ([2]; pH 4.5, 40° C., 30 min)?
The value was 89%.

What about the “% Assay of Pantoprazole Sodium” value ([2]; pH 4.5, 40° C., 60 min) of the same molecule?
The value was 79%.

What about the “% Assay of Pantoprazole Sodium” value ([2]; pH 4.5, 40° C., 120 min) of the same molecule?
Its value is 64%.

What about the “% Assay of Pantoprazole Sodium” value ([2]; pH 5.5, 22° C., 15 min) of the same molecule?
The value was 98%.

And the “% Assay of Pantoprazole Sodium” value ([2]; pH 5.5, 22° C., 30 min)?
Its value is 92%.

What about the “% Assay of Pantoprazole Sodium” value ([2]; pH 5.5, 22° C., 60 min) of the same molecule?
Its value is 94%.

And the “% Assay of Pantoprazole Sodium” value ([2]; pH 5.5, 22° C., 120 min)?
The value was 88%.

What about the “% Assay of Pantoprazole Sodium” value ([2]; pH 5.5, 22° C., Initial) of the same molecule?
Its value is 98%.

And the “% Assay of Pantoprazole Sodium” value ([2]; pH 5.5, 40° C., 15 min)?
The value was 97%.

And the “% Assay of Pantoprazole Sodium” value ([2]; pH 5.5, 40° C., 30 min)?
Its value is 86%.

And the “% Assay of Pantoprazole Sodium” value ([2]; pH 5.5, 40° C., 60 min)?
The value was 77%.

What about the “% Assay of Pantoprazole Sodium” value ([2]; pH 5.5, 40° C., 120 min) of the same molecule?
Its value is 53%.
